The record followed here is patent US20050197350A1, “Novel quinoline, tetrahydroquinazoline, and pyrimidine derivatives and methods of treatment related to the use thereof” (TAISHO PHARMACEUTICAL CO., LTD., priority 2003, published 2005).

In the assay the test system is MCH receptors. Kind of assay: MCH receptor activity class (method not given). As to conditions: MCH receptor; class by percent of control at 10^-7 M or IC50.

Structures are written as SMILES.

As for `CN(C)c1cc(N[C@H]2CC[C@@H](CNC(=O)c3ccc(Cl)cc3)CC2)nc2ccccc12` [compound 152], the class was 3 (Class 3 The value of percent of control at 10^−7 M was more than 60% or the value of IC50 was more than 200 nM.). To `CN(C)c1cc(N[C@H]2CC[C@@H](CNC(=O)/C=C/c3ccccc3)CC2)nc2ccccc12` [compound 153] belongs 3 (Class 3 The value of percent of control at 10^−7 M was more than 60% or the value of IC50 was more than 200 nM.); to `CN(C)c1cc(N[C@H]2CC[C@@H](CNC(=O)c3ccc(Cl)c([N+](=O)[O-])c3)CC2)nc2ccccc12` [compound 154], 3 (Class 3 The value of percent of control at 10^−7 M was more than 60% or the value of IC50 was more than 200 nM.). `CN(C)c1cc(N[C@H]2CC[C@@H](CNC(=O)Cc3ccc(Cl)cc3)CC2)nc2ccccc12` [compound 155]: the class is on record as 3 (Class 3 The value of percent of control at 10^−7 M was more than 60% or the value of IC50 was more than 200 nM.). In the case of `CN(C)c1cc(N[C@H]2CC[C@@H](CNC(=O)c3cccc(C#N)c3)CC2)nc2ccccc12` [compound 156] it was 3 (Class 3 The value of percent of control at 10^−7 M was more than 60% or the value of IC50 was more than 200 nM.); in that of `CN(C)c1cc(N[C@H]2CC[C@@H](CNC(=O)c3cc(Cl)cc(Cl)c3)CC2)nc2ccccc12` [compound 157], 3 (Class 3 The value of percent of control at 10^−7 M was more than 60% or the value of IC50 was more than 200 nM.). Take `CN(C)c1cc(N[C@H]2CC[C@@H](CNC(=O)c3ccc(Cl)c(Cl)c3)CC2)nc2ccccc12` [compound 158]: the class is given as 3 (Class 3 The value of percent of control at 10^−7 M was more than 60% or the value of IC50 was more than 200 nM.). To `CN(C)c1cc(N[C@H]2CC[C@@H](CNC(=O)C(c3ccccc3)c3ccccc3)CC2)nc2ccccc12` [compound 159, N-[(cis-4-{[4-(dimethylamino)quinolin-2-yl]amino}cyclohexyl)methyl]-2,2-diphenylacetamide] belongs 2 (Class 2: The value of percent of control at 10^−7 M was from 40% to 60% or the value of IC′50 was from 50 nM to 200 nM.); to `CN(C)c1cc(N[C@H]2CC[C@@H](CNC(=O)c3ccc(F)c(F)c3)CC2)nc2ccccc12` [compound 160, N-[(cis-4-{[4-(dimethylamino)quinolin-2-yl]amino}cyclohexyl)methyl]-3,4-difluorobenzamide], 3 (Class 3 The value of percent of control at 10^−7 M was more than 60% or the value of IC50 was more than 200 nM.). In the case of `CN(C)c1cc(N[C@H]2CC[C@@H](CNC(=O)c3cc(F)cc(F)c3)CC2)nc2ccccc12` [compound 161, N-[(cis-4-{[4-(dimethylamino)quinolin-2-yl]amino}cyclohexyl)methyl]-3,5-difluorobenzamide] it was 3 (Class 3 The value of percent of control at 10^−7 M was more than 60% or the value of IC50 was more than 200 nM.); in that of `COc1ccc(OC)c(CC(=O)NC[C@H]2CC[C@@H](Nc3cc(N(C)C)c4ccccc4n3)CC2)c1` [compound 162], 3 (Class 3 The value of percent of control at 10^−7 M was more than 60% or the value of IC50 was more than 200 nM.). In the case of `CCSc1ncccc1C(=O)NC[C@H]1CC[C@@H](Nc2cc(N(C)C)c3ccccc3n2)CC1` [compound 163] it was 3 (Class 3 The value of percent of control at 10^−7 M was more than 60% or the value of IC50 was more than 200 nM.).

On to `CN(C)c1cc(N[C@H]2CC[C@@H](CNC(=O)c3ccc(F)cc3)CC2)nc2ccccc12` [compound 164, N-[(cis-4-{[4-(dimethylamino)quinolin-2-yl]amino}cyclohexyl)methyl]-4-fluorobenzamide], for which the class was 3 (Class 3 The value of percent of control at 10^−7 M was more than 60% or the value of IC50 was more than 200 nM.). In the case of `CN(C)c1cc(N[C@H]2CC[C@@H](CNC(=O)c3cc(F)cc(C(F)(F)F)c3)CC2)nc2ccccc12` [compound 165] it was 3 (Class 3 The value of percent of control at 10^−7 M was more than 60% or the value of IC50 was more than 200 nM.). In the case of `CN(C)c1cc(N[C@H]2CC[C@@H](CNC(=O)c3cc(F)c(Cl)cc3Cl)CC2)nc2ccccc12` [compound 166] it was 3 (Class 3 The value of percent of control at 10^−7 M was more than 60% or the value of IC50 was more than 200 nM.); in that of `CCCCCC(=O)NC[C@H]1CC[C@@H](Nc2cc(N(C)C)c3ccccc3n2)CC1` [compound 167], 3 (Class 3 The value of percent of control at 10^−7 M was more than 60% or the value of IC50 was more than 200 nM.); in that of `CN(C)c1cc(N[C@H]2CC[C@@H](CNC(=O)c3ccc(I)cc3)CC2)nc2ccccc12` [compound 168], 3 (Class 3 The value of percent of control at 10^−7 M was more than 60% or the value of IC50 was more than 200 nM.).

With `CSc1ncccc1C(=O)NC[C@H]1CC[C@@H](Nc2cc(N(C)C)c3ccccc3n2)CC1` [compound 169], the class is 3 (Class 3 The value of percent of control at 10^−7 M was more than 60% or the value of IC50 was more than 200 nM.). With `Cc1ccc(C(=O)NC[C@H]2CC[C@@H](Nc3cc(N(C)C)c4ccccc4n3)CC2)cc1[N+](=O)[O-]` [compound 170, N-[(cis-4-{[4-(dimethylamino)quinolin-2-yl]amino}cyclohexyl)methyl]-4-methyl-3-nitrobenzamide], the class is 3 (Class 3 The value of percent of control at 10^−7 M was more than 60% or the value of IC50 was more than 200 nM.). To `CN(C)c1cc(N[C@H]2CC[C@@H](CNC(=O)c3cccc([N+](=O)[O-])c3)CC2)nc2ccccc12` [compound 171, N-[(cis-4-{[4-(dimethylamino)quinolin-2-yl]amino}cyclohexyl)methyl]-3-nitrobenzamide] belongs 3 (Class 3 The value of percent of control at 10^−7 M was more than 60% or the value of IC50 was more than 200 nM.); to `CN(C)c1cc(N[C@H]2CC[C@@H](CNC(=O)Cc3ccccc3)CC2)nc2ccccc12` [compound 172], 3 (Class 3 The value of percent of control at 10^−7 M was more than 60% or the value of IC50 was more than 200 nM.); to `CN(C)c1cc(N[C@H]2CC[C@@H](CNC(=O)C3C[C@H]3c3ccccc3)CC2)nc2ccccc12` (some centres unmarked) [compound 173], 3 (Class 3 The value of percent of control at 10^−7 M was more than 60% or the value of IC50 was more than 200 nM.).

In the case of `CN(C)c1cc(N[C@H]2CC[C@@H](CNC(=O)c3ccc4c(c3)OCO4)CC2)nc2ccccc12` [compound 174], the class is 3 (Class 3 The value of percent of control at 10^−7 M was more than 60% or the value of IC50 was more than 200 nM.). Take `Cc1cccc(C(=O)NC[C@H]2CC[C@@H](Nc3cc(N(C)C)c4ccccc4n3)CC2)c1` [compound 177, N-[(cis-4-{[4-(dimethylamino)quinolin-2-yl]amino}cyclohexyl)methyl]-3-methylbenzamide]: the class is recorded as 3 (Class 3 The value of percent of control at 10^−7 M was more than 60% or the value of IC50 was more than 200 nM.). In the case of `Cc1ccc(C(=O)NC[C@H]2CC[C@@H](Nc3cc(N(C)C)c4ccccc4n3)CC2)cc1` [compound 178] it was 3 (Class 3 The value of percent of control at 10^−7 M was more than 60% or the value of IC50 was more than 200 nM.); in that of `CN(C)c1cc(N[C@H]2CC[C@@H](CNC(=O)c3cccs3)CC2)nc2ccccc12` [compound 179], 3 (Class 3 The value of percent of control at 10^−7 M was more than 60% or the value of IC50 was more than 200 nM.); in that of `CN(C)c1cc(N[C@H]2CC[C@@H](CNC(=O)Cc3cccs3)CC2)nc2ccccc12` [compound 180], 3 (Class 3 The value of percent of control at 10^−7 M was more than 60% or the value of IC50 was more than 200 nM.). To `CN(C)c1cc(N[C@H]2CC[C@@H](CNC(=O)c3cccc(OC(F)(F)F)c3)CC2)nc2ccccc12` [compound 181, N-[(cis-4-{[4-(dimethylamino)quinolin-2-yl]amino}cyclohexyl)methyl]-3-(trifluoromethoxy)benzamide] belongs 3 (Class 3 The value of percent of control at 10^−7 M was more than 60% or the value of IC50 was more than 200 nM.); to `CN(C)c1cc(NC2CCC(CNC(=O)OCc3ccccc3)CC2)nc2ccccc12` (centres unmarked) [compound 182], 3 (Class 3 The value of percent of control at 10^−7 M was more than 60% or the value of IC50 was more than 200 nM.); to `CN(C)c1cc(NC2CCC(CNC(=O)OCc3ccc([N+](=O)[O-])cc3)CC2)nc2ccccc12` (centres unmarked) [compound 183], 3 (Class 3 The value of percent of control at 10^−7 M was more than 60% or the value of IC50 was more than 200 nM.). To `Cc1cc(C(=O)NC[C@H]2CC[C@@H](Nc3cc(N(C)C)c4ccccc4n3)CC2)ccc1Br` [compound 184] belongs 3 (Class 3 The value of percent of control at 10^−7 M was more than 60% or the value of IC50 was more than 200 nM.). With `CN(C)c1cc(N[C@H]2CC[C@@H](CNC(=O)c3cccc(I)c3)CC2)nc2ccccc12` [compound 185, N-[(cis-4-{[4-(dimethylamino)quinolin-2-yl]amino}cyclohexyl)methyl]-3-iodobenzamide], the class is 3 (Class 3 The value of percent of control at 10^−7 M was more than 60% or the value of IC50 was more than 200 nM.).

Consider `CN(C)c1cc(N[C@H]2CC[C@@H](CNC(=O)c3cccc(Cl)c3F)CC2)nc2ccccc12` [compound 186], for which the class was 3 (Class 3 The value of percent of control at 10^−7 M was more than 60% or the value of IC50 was more than 200 nM.). As for `Cc1ccc(C(=O)NC[C@H]2CC[C@@H](Nc3cc(N(C)C)c4ccccc4n3)CC2)c(F)c1F` [compound 187], the class is 3 (Class 3 The value of percent of control at 10^−7 M was more than 60% or the value of IC50 was more than 200 nM.). Take `CN(C)c1cc(N[C@H]2CC[C@@H](CNC(=O)c3ccc(F)cc3Cl)CC2)nc2ccccc12` [compound 188]: the class is reported as 3 (Class 3 The value of percent of control at 10^−7 M was more than 60% or the value of IC50 was more than 200 nM.).
